Data reported in patent US20100120700A1, “METHODS AND COMPOSITIONS FOR TREATING CERVICAL CANCER” (priority 2000, published 2010).
Entries after “also recorded” stand apart in the source; their conditions may differ.

How the values were obtained:
[1] = system: c-JUN N-terminal kinase (JNK); experiment: Jun kinase assay in microinjected Xenopus oocytes; assay type: cell-based
Procedure: Experimental Design: This experiment was divided into two phases. In the first phase, an MBP-E6 fusion protein (HPV16; see example 4) was microinjected into Xenopus oocytes at different concetrations and then the oocytes were assayed for INK activity. In the second phase, peptides corresponding to the C-termini of non-oncogenic E6 protein (HPV11), HPV16 E6 (oncogenic) or Tax (shown to block oncogenic E6 binding to PDZ domains, FIG. 3) were co-injected with an activating amount of MBP-E6 fusion protein to assess ther abilities to block JNK activation.
Isolation and Microinjection of Oocytes—Xenopus ovarian tissue was surgically removed, and oocytes were defolliculated for 1-1.5 h at room temperature with 2 mg/ml collagenase and 0.5 mg/ml polyvinylpyrrolidone in Ca21-free modified Barth's solution (88 mM NaCl, 1 mM KCl, 0.82 mM MgSO4, 2.4 mM NaHCO3, 10 mM HEPES, pH 7.5). The oocytes were then washed four times with modified Barth's solution. Stage VI oocytes were sorted manually and incubated at 16° C. for at least 10 h in OR2 solution (82.5 mM NaCl, 2.5 mM KCl, 1 mM CaCl2, 1 mM Na2HPO4, 5 mM HEPES, pH 7.5) supplemented with 1 mg/ml bovine serum albumin and […] gentamicin. Immature oocytes were microinjected with purified MBP-E6 protein or E6 protein and peptide and transferred to fresh OR2 for the duration of the time course. Five oocytes were collected per time point, frozen on dry ice, and stored at −80° C.
Lysis of Oocytes, Eggs, and Embryos—Frozen oocytes, eggs, and embryos were thawed rapidly and lysed by pipetting up and down in 60 ml of ice-cold extraction buffer (EB) (0.25 M sucrose, 0.1 M NaCl, 2.5 mM MgCl2, 20 mM HEPES, pH 7.2) containing 10 mM EDTA, protease inhibitors (10 mg/ml leupeptin, 10 mg/ml pepstatin, 10 mg/ml aprotinin, 1 mM phenylmethylsulfonyl fluoride), and phosphatase inhibitors (50 mM 2-glycerophosphate, 1 mM sodium orthovanadate, 2 mM microcystin). Samples were clarified by centrifugation for 2.5 min in a Beckman E microcentrifuge with a right angle rotor. Crude cytoplasm was collected and processed for immunoblotting or kinase assays, as described below.
Jun Kinase Assay—Jun kinase assays were performed as described. Crude oocyte, egg, or embryo cytoplasm was diluted 1:1 in EB and pre-cleared with 20 ml of glutathione-Sepharose beads (Amersham Pharmacia Biotech) for 1 h at 4° C. with moderate shaking. Lysates were incubated with glutathione S-transferase GST-c-Jun-(1-79) fusion protein (hereafter denoted GST-Jun) immobilized on glutathione- Sepharose beads. After 3 h at 4° C., the beads were washed three times with 50 mM HEPES, pH 7.5, 150 mM NaCl, 1% Triton X-100, 1 mM EDTA, 10% glycerol, 10 mM sodium pyrophosphate, 2 mM sodium orthovanadate, 10 mM sodium fluoride, 1 mM phenylmethylsulfonyl fluoride, and 10 mg/ml aprotinin (24) and once with 0.4 ml of kinase buffer (20 mM HEPES, pH 7.5, 10 mM MgCl2, 1 mM dithiothreitol, 200 mM sodium orthovanadate). The bound JNK activity was detected by the addition of 1 mCi of [g-32]JATP. The reaction was terminated after 20 min at 30° C., and the products were resolved by SDS-PAGE. The gels were transferred to PVDF membranes (Hybond; Amersham Pharmacia Biotech) and the incorporation of [32P]phosphate into GST-Jun was visualized by autoradiography. […]

AF6 domain 1 = target: T1, AF6 domain 1 (Homo sapiens, UniProt P55196); experiment: G assay PDZ-PL binding; conditions: peptide 10 uM, protein 5
T1 construct: made in house; host or cells: E. coli (DH5alpha or BL-21)
T1 sequence (P55196 1001-1093): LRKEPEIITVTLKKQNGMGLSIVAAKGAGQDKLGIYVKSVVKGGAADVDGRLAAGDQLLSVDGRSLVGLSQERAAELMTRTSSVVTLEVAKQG

DLG3 (PDZ1-2) = DLG3 (PDZ1-2) (Homo sapiens, UniProt Q92796); conditions: E6 peptide titrated against constant GST-PDZ; DLG3 (1-2)
DLG3 (PDZ1-2), sequence (Q92796 129-315 limits assumed): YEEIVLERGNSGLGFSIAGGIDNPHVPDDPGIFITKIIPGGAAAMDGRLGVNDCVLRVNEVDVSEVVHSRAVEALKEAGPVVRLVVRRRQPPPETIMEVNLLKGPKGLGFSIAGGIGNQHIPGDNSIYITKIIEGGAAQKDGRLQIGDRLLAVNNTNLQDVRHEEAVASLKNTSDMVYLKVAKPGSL
Procedure: (§1) (1) A GST/PDZ fusion protein, as well as GST alone as a negative control, are bound to a surface (e.g., a 96-well plate) and the surface blocked and washed as described supra for the “G” assay.
(§2) (2) 50 uL per well of a solution of biotinylated PL peptide (e.g. as shown in TABLE 2) is added to the surface in increasing concentrations in PBS/BSA (e.g. at 0.1 uM, 0.33 uM, 1 uM, 3.3 uM, 10 uM, 33 uM, and 100 uM). In one embodiment, the PL peptide is allowed to react with the bound GST/PDZ fusion protein (as well as the GST alone negative control) for 10 minutes at 4° C. followed by 20 minutes at 25° C. The plate is washed 3 times with ice cold PBS to remove unbound labeled peptide.
(§3) (3) The binding of the PL peptide to the immobilized PDZ-domain polypeptide is detected as described supra for the “G” assay.
(§4) (4) For each concentration of peptide, the net binding signal is determined by subtracting the binding of the peptide to GST alone from the binding of the peptide to the GST/PDZ fusion protein. The net binding signal is then plotted as a function of ligand concentration and the plot is fit (e.g. by using the Kaleidagraph software package curve fitting algorithm; Synergy Software) to the following equation, where “Signal[ligand]” is the net binding signal at PL peptide concentration “[ligand],” “Kd” is the apparent affinity of the binding event, and “Saturation Binding” is a constant determined by the curve fitting algorithm to optimize the fit to the experimental data: […]

PSD95 (PDZ1-3) = PSD95 (PDZ1-3) (Homo sapiens, UniProt P78352); conditions: E6 peptide titrated against constant GST-PDZ; PSD95 (1-3)
PSD95 (PDZ1-3), sequence (P78352 62-395): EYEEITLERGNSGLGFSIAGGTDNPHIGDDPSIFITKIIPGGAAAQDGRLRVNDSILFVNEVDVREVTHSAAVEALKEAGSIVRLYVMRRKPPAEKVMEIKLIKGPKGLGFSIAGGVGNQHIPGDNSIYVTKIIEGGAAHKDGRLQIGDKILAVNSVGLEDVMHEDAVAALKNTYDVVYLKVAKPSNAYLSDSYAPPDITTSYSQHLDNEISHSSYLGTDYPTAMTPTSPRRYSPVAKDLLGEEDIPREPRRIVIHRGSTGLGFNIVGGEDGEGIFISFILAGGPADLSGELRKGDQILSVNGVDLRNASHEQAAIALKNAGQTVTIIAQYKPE
Procedure: as §1, §2, §3, §4

## 20 mer peptide corresponding to the C-terminus of HPV16 E6 (PDZ ligand), biotinylated in binding assays; ends SSRTRRETQL (SEQ ID NO: 13) [HPV E6 #16]
[1]
  inhibition of HPV16 E6-dependent JNK activation by co-injected peptide: can be inhibited by peptide representing HPV E6 16 oncoprotein; also recorded: can be inhibited by peptide representing the c-terminus of the HPV16 E6 oncoprotein; also recorded: blocked E6-dependent INK activation
AF6 domain 1; A450 nm
  Ave OD: 0.444
AF6 domain 1; vs GST only well
  OD S/N: 1.80
DLG3 (PDZ1-2)
  EC50: 3800 nM
PSD95 (PDZ1-3)
  EC50: 1000 nM
